According to BindingDB's records for PubMed 1706716 (Duke University, 1991):

Tests used:
[1] = molecular target: T1, Alpha-1A adrenergic receptor (Bos taurus, UniProt P18130)
T1 sequence (P18130 whole entry): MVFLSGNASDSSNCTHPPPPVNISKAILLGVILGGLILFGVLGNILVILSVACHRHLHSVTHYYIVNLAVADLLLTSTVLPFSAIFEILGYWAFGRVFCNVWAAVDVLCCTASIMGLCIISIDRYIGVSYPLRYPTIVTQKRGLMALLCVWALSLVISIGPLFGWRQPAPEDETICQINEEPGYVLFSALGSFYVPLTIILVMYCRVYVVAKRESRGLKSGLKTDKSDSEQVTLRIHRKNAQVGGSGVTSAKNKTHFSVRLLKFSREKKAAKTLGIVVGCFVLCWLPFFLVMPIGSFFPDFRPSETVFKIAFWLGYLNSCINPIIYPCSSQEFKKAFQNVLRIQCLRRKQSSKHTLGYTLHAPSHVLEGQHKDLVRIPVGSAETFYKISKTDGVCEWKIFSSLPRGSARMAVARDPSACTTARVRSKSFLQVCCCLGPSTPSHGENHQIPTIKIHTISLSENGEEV

[2] = molecular target: T2, Alpha-1B adrenergic receptor (Rattus norvegicus, UniProt P15823)
T2 sequence (P15823 whole entry): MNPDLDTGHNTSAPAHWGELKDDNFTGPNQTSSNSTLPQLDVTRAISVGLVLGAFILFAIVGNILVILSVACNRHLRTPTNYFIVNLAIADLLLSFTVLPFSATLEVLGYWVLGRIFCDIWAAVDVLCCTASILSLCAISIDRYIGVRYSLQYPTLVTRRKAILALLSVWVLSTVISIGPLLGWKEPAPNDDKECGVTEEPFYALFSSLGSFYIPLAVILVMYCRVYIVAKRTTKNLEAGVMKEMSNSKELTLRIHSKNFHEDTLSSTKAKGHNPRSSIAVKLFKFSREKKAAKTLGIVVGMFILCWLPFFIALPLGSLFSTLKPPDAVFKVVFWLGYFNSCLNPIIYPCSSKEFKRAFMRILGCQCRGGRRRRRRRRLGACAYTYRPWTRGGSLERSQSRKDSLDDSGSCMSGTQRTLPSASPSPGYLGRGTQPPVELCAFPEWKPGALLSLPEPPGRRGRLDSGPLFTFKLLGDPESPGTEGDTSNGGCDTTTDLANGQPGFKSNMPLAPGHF

[3] = molecular target: T3, Alpha-1A adrenergic receptor (Rattus norvegicus, UniProt P43140)
T3 sequence (P43140 whole entry): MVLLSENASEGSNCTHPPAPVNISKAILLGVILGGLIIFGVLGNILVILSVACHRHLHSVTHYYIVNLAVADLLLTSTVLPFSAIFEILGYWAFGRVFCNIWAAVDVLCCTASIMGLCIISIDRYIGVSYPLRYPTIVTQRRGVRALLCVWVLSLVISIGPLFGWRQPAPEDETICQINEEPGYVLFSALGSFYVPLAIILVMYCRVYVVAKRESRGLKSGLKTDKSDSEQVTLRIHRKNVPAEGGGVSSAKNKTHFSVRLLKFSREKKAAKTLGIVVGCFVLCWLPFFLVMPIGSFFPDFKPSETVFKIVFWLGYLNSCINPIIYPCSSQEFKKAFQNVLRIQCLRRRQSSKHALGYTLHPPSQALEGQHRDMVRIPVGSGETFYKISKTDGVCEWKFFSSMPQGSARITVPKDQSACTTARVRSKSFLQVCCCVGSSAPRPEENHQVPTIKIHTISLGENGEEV

SMILES | Ki [1] [nM] | Ki [2] [nM] | Ki [3] [nM]
NCC(O)c1ccc(O)c(O)c1 (stereo not drawn) [Noradrenaline,(+)] | 9730 |  | 
COC(=O)[C@@H]1[C@H]2C[C@H]3c4[nH]c5ccccc5c4CCN3C[C@@H]2CC[C@@H]1O [yohimbic acid methyl ester] |  | 517 | 
Cc1cc(C(C)(C)C)c(O)c(C)c1CC1=NCCN1 [SMR000059324] | 114 |  | 
Cc1ccc(N(CC2=NCCN2)c2cccc(O)c2)cc1 [SMR000059054] | 15.3 |  | 
CNC[C@H](O)c1cccc(O)c1 [PHENYLEPHRINE] | > 10000 |  | 
COc1ccc(OC)c(C(O)C(C)N)c1 (stereo not drawn) | > 10000 | 1610 | > 10000
O=C(NC1CCN(CCc2c[nH]c3ccccc23)CC1)c1ccccc1 [N-{1-[2-(1H-Indol-3-yl)-ethyl]-piperidin-4-yl}-benzamide(indoramin)] |  | 226 | 611
COc1cccc(OC)c1OCCNCC1Oc2ccccc2OC1c1ccccc1 (stereo not drawn) [NSC_185453] | 0.68 | 28.6 | 2.1
